We go through 10 molecules from patent US6399629B1, “Efflux pump inhibitors” (priority 1998, dated 2002).

The assay concerns Pseudomonas aeruginosa PAM1001. Kind of assay: checkerboard assay (broth microdilution): levofloxacin MIC in presence of efflux pump inhibitor. It is filed as cell-based. The procedure, abridged: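 Checkerboard broth microdilution in Mueller Hinton Broth against P. aeruginosa PAM1001 (5×10^5 CFU/mL, early-log inoculum), levofloxacin and efflux pump inhibitor (up to 40 μg/mL) diluted along crossing axes. Plates incubated 20 h at 35° C; growth read at 650 nm and visually. Potentiation scored as reduced levofloxacin MIC.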

SMILES strings stand for the structures.

On to `Cc1ccc2ncc(C(=O)NC[C@@H](CCc3ccccc3)NC(=O)[C@H]3C[C@H](CN)CN3)cc2c1` [Compound M63, (2R,4R)-4-(Aminomethyl)-N-[(1R)-3-phenyl-1-[(6-methyl-3-quinolylcarboxamido)methyl]propyl]-2-pyrrolidinecaroxamide], for which the “Levofloxacin MIC Against P. aerugiuosa PAM1001 in Presence of Efflux Pump Inhibitor (EPI), Minimum Inhibitory Concentration” value came out at 4 µg/mL (EPI Conc. 0 μg/mL); 4 µg/mL (EPI Conc. 0.625 μg/mL); 4 µg/mL (EPI Conc. 1.25 μg/mL); 4 µg/mL (EPI Conc. 2.5 μg/mL); 2 µg/mL (EPI Conc. 5 μg/ mL); 1 µg/mL (EPI Conc. 10 μg/mL). The “Levofloxacin MIC Against P. aerugiuosa PAM1001 in Presence of Efflux Pump Inhibitor (EPI), Minimum Inhibitory Concentration” value runs as follows: (EPI Conc. 20 μg/mL) 0.008 µg/mL; (EPI Conc. 40 μg/mL) 0.015 µg/mL.

Consider `CC(C)C[C@@H](NC(=O)[C@@H]1C[C@@H](NC(=O)CN)CN1)C(=O)Nc1cnc2ccccc2c1` [Compound M8], for which the “Levofloxacin MIC Against P. aerugiuosa PAM1001 in Presence of Efflux Pump Inhibitor (EPI), Minimum Inhibitory Concentration” value (EPI Conc. 0 μg/mL) is 2 µg/mL; the “Levofloxacin MIC Against P. aerugiuosa PAM1001 in Presence of Efflux Pump Inhibitor (EPI), Minimum Inhibitory Concentration” value (EPI Conc. 0.625 μg/mL) is 2 µg/mL; the “Levofloxacin MIC Against P. aerugiuosa PAM1001 in Presence of Efflux Pump Inhibitor (EPI), Minimum Inhibitory Concentration” value (EPI Conc. 1.25 μg/mL) was 2 µg/mL; the “Levofloxacin MIC Against P. aerugiuosa PAM1001 in Presence of Efflux Pump Inhibitor (EPI), Minimum Inhibitory Concentration” value (EPI Conc. 2.5 μg/mL) worked out at 2 µg/mL; the “Levofloxacin MIC Against P. aerugiuosa PAM1001 in Presence of Efflux Pump Inhibitor (EPI), Minimum Inhibitory Concentration” value (EPI Conc. 5 μg/ mL) amounted to 2 µg/mL; the “Levofloxacin MIC Against P. aerugiuosa PAM1001 in Presence of Efflux Pump Inhibitor (EPI), Minimum Inhibitory Concentration” value (EPI Conc. 10 μg/mL) is 2 µg/mL. In addition, the “Levofloxacin MIC Against P. aerugiuosa PAM1001 in Presence of Efflux Pump Inhibitor (EPI), Minimum Inhibitory Concentration” value reads like this: (EPI Conc. 20 μg/mL) 1 µg/mL; (EPI Conc. 40 μg/mL) 0.25 µg/mL.

`NCC(=O)N[C@H]1CN[C@H](C(=O)N[C@@H](CCc2ccccc2)c2nc3ccccc3[nH]2)C1` [Compound M78]: the “Levofloxacin MIC Against P. aerugiuosa PAM1001 in Presence of Efflux Pump Inhibitor (EPI), Minimum Inhibitory Concentration” value runs as follows: (EPI Conc. 0 μg/mL) 4 µg/mL; (EPI Conc. 0.625 μg/mL) 4 µg/mL; (EPI Conc. 1.25 μg/mL) 4 µg/mL; (EPI Conc. 2.5 μg/mL) 4 µg/mL; (EPI Conc. 5 μg/ mL) 4 µg/mL; (EPI Conc. 10 μg/mL) 2 µg/mL. The “Levofloxacin MIC Against P. aerugiuosa PAM1001 in Presence of Efflux Pump Inhibitor (EPI), Minimum Inhibitory Concentration” value is, setting by setting: (EPI Conc. 20 μg/mL) 1 µg/mL; (EPI Conc. 40 μg/mL) 0.125 µg/mL.

Turning to `NCC(=O)N[C@H]1CN[C@H](C(=O)NCc2nc3cc(C(O)c4ccccc4)ccc3[nH]2)C1` (stereo partly drawn) [Compound M82, (2S,4R)-4-(2-Aminoacetamido)-N-[(5-(1-hydroxy-1-phenyl)methyl-2-benzimidazolyl)methyl]-2-pyrrolidinecarboxaniide], the “Levofloxacin MIC Against P. aerugiuosa PAM1001 in Presence of Efflux Pump Inhibitor (EPI), Minimum Inhibitory Concentration” value by setting is: (EPI Conc. 0 μg/mL) 4 µg/mL; (EPI Conc. 0.625 μg/mL) 4 µg/mL; (EPI Conc. 1.25 μg/mL) 4 µg/mL; (EPI Conc. 2.5 μg/mL) 2 µg/mL; (EPI Conc. 5 μg/ mL) 1 µg/mL; (EPI Conc. 10 μg/mL) 0.25 µg/mL. In addition, the “Levofloxacin MIC Against P. aerugiuosa PAM1001 in Presence of Efflux Pump Inhibitor (EPI), Minimum Inhibitory Concentration” value (EPI Conc. 20 μg/mL) amounted to 0.125 µg/mL and the “Levofloxacin MIC Against P. aerugiuosa PAM1001 in Presence of Efflux Pump Inhibitor (EPI), Minimum Inhibitory Concentration” value (EPI Conc. 40 μg/mL) was determined as 0.06 µg/mL.

As to `NCC(=O)N[C@H]1CN[C@H](C(=O)N[C@H](CCc2ccccc2)CSc2cnc3ccccc3c2)C1` [Compound M53, (2S,4R)-4-(2-Aminoacetamideo)-N-[(1R)-3-phenyl-1-[(3-quinolythio)methyl]propyl]-2-pyrrolidinecarboxamide], the “Levofloxacin MIC Against P. aerugiuosa PAM1001 in Presence of Efflux Pump Inhibitor (EPI), Minimum Inhibitory Concentration” value came out at 4 µg/mL (EPI Conc. 0 μg/mL); 4 µg/mL (EPI Conc. 0.625 μg/mL); 4 µg/mL (EPI Conc. 1.25 μg/mL); 4 µg/mL (EPI Conc. 2.5 μg/mL); 4 µg/mL (EPI Conc. 5 μg/ mL); 4 µg/mL (EPI Conc. 10 μg/mL). The “Levofloxacin MIC Against P. aerugiuosa PAM1001 in Presence of Efflux Pump Inhibitor (EPI), Minimum Inhibitory Concentration” value came out at 0.06 µg/mL (EPI Conc. 20 μg/mL) and 0.03 µg/mL (EPI Conc. 40 μg/mL).

With `NC[C@@H]1CN[C@@H](C(=O)N[C@H](CCc2ccccc2)C(=O)Nc2cc(Cl)ccc2O)C1` [Compound M39, (2R,4R)-4-(Aminomethyl)-N-[(1R)-3-pheyl-1-(5-chloro-2-hydroxyphenylcarbamoyl)propyl]-2-pyrrolidinecarboxamide], the “Levofloxacin MIC Against P. aerugiuosa PAM1001 in Presence of Efflux Pump Inhibitor (EPI), Minimum Inhibitory Concentration” value (EPI Conc. 0 μg/mL) is 4 µg/mL; the “Levofloxacin MIC Against P. aerugiuosa PAM1001 in Presence of Efflux Pump Inhibitor (EPI), Minimum Inhibitory Concentration” value (EPI Conc. 0.625 μg/mL) worked out at 4 µg/mL; the “Levofloxacin MIC Against P. aerugiuosa PAM1001 in Presence of Efflux Pump Inhibitor (EPI), Minimum Inhibitory Concentration” value (EPI Conc. 1.25 μg/mL) was 2 µg/mL; the “Levofloxacin MIC Against P. aerugiuosa PAM1001 in Presence of Efflux Pump Inhibitor (EPI), Minimum Inhibitory Concentration” value (EPI Conc. 2.5 μg/mL) amounted to 0.5 µg/mL; the “Levofloxacin MIC Against P. aerugiuosa PAM1001 in Presence of Efflux Pump Inhibitor (EPI), Minimum Inhibitory Concentration” value (EPI Conc. 5 μg/ mL) worked out at 0.25 µg/mL; the “Levofloxacin MIC Against P. aerugiuosa PAM1001 in Presence of Efflux Pump Inhibitor (EPI), Minimum Inhibitory Concentration” value (EPI Conc. 10 μg/mL) worked out at 0.015 µg/mL. Moreover, the “Levofloxacin MIC Against P. aerugiuosa PAM1001 in Presence of Efflux Pump Inhibitor (EPI), Minimum Inhibitory Concentration” value runs as follows: (EPI Conc. 20 μg/mL) 0.015 µg/mL; (EPI Conc. 40 μg/mL) 0.015 µg/mL.

As for `N[C@H]1CN[C@H](C(=O)N[C@H](CCc2ccccc2)C(=O)Nc2cnc3ccccc3c2)C1` [Compound M7], the “Levofloxacin MIC Against P. aerugiuosa PAM1001 in Presence of Efflux Pump Inhibitor (EPI), Minimum Inhibitory Concentration” value reads like this: (EPI Conc. 0 μg/mL) 4 µg/mL; (EPI Conc. 0.625 μg/mL) 4 µg/mL; (EPI Conc. 1.25 μg/mL) 4 µg/mL; (EPI Conc. 2.5 μg/mL) 4 µg/mL; (EPI Conc. 5 μg/ mL) 4 µg/mL; (EPI Conc. 10 μg/mL) 4 µg/mL. The “Levofloxacin MIC Against P. aerugiuosa PAM1001 in Presence of Efflux Pump Inhibitor (EPI), Minimum Inhibitory Concentration” value is, setting by setting: (EPI Conc. 20 μg/mL) 4 µg/mL; (EPI Conc. 40 μg/mL) 0.06 µg/mL.

`NC[C@@H]1CN[C@@H](CO[C@@H](CCc2ccccc2)C(=O)Nc2cnc3ccccc3c2)C1` [Compound M69, (2R,4R)-4-(Aminomethyl)-2-[((1S)-3-phenyl-1-(3-quiolylcarbamoyl)propyl)oxymethyl]pyrrolidine]: the “Levofloxacin MIC Against P. aerugiuosa PAM1001 in Presence of Efflux Pump Inhibitor (EPI), Minimum Inhibitory Concentration” value reads like this: (EPI Conc. 0 μg/mL) 4 µg/mL; (EPI Conc. 0.625 μg/mL) 4 µg/mL; (EPI Conc. 1.25 μg/mL) 2 µg/mL; (EPI Conc. 2.5 μg/mL) 2 µg/mL; (EPI Conc. 5 μg/ mL) 0.125 µg/mL; (EPI Conc. 10 μg/mL) 0.125 µg/mL. Moreover, the “Levofloxacin MIC Against P. aerugiuosa PAM1001 in Presence of Efflux Pump Inhibitor (EPI), Minimum Inhibitory Concentration” value runs as follows: (EPI Conc. 20 μg/mL) 0.125 µg/mL; (EPI Conc. 40 μg/mL) 0.06 µg/mL.

As to `CC(C)C[C@H](COc1cnc2ccccc2c1)NC(=O)[C@H]1C[C@H](CN)CN1` [Compound M59, (2R,4R)-4-(Aminomethyl)-N-[(1R)-3-methyl-1-[(3-quiolyloxy)methyl]butyl]-2-pyrrolidinecarboxamide], the “Levofloxacin MIC Against P. aerugiuosa PAM1001 in Presence of Efflux Pump Inhibitor (EPI), Minimum Inhibitory Concentration” value (EPI Conc. 0 μg/mL) was 4 µg/mL; the “Levofloxacin MIC Against P. aerugiuosa PAM1001 in Presence of Efflux Pump Inhibitor (EPI), Minimum Inhibitory Concentration” value (EPI Conc. 0.625 μg/mL) was 4 µg/mL; the “Levofloxacin MIC Against P. aerugiuosa PAM1001 in Presence of Efflux Pump Inhibitor (EPI), Minimum Inhibitory Concentration” value (EPI Conc. 1.25 μg/mL) came out at 4 µg/mL; the “Levofloxacin MIC Against P. aerugiuosa PAM1001 in Presence of Efflux Pump Inhibitor (EPI), Minimum Inhibitory Concentration” value (EPI Conc. 2.5 μg/mL) was found to be 4 µg/mL; the “Levofloxacin MIC Against P. aerugiuosa PAM1001 in Presence of Efflux Pump Inhibitor (EPI), Minimum Inhibitory Concentration” value (EPI Conc. 5 μg/ mL) worked out at 4 µg/mL; the “Levofloxacin MIC Against P. aerugiuosa PAM1001 in Presence of Efflux Pump Inhibitor (EPI), Minimum Inhibitory Concentration” value (EPI Conc. 10 μg/mL) amounted to 1 µg/mL. In addition, the “Levofloxacin MIC Against P. aerugiuosa PAM1001 in Presence of Efflux Pump Inhibitor (EPI), Minimum Inhibitory Concentration” value runs as follows: (EPI Conc. 20 μg/mL) 0.5 µg/mL; (EPI Conc. 40 μg/mL) 0.125 µg/mL.

With `CC(N)C(=O)N[C@H]1CN[C@H](C(=O)N[C@H](CCc2ccccc2)C(=O)Nc2cnc3ccccc3c2)C1` (stereo partly drawn) [Compound M4, (2S,4R)-4-(2-Aminopropionamido]-N-[(1R)-3-pheyl-1-(3-quinolylcarbamoyl)propyl]-2-pyrrolidinecarboxamide], the “Levofloxacin MIC Against P. aerugiuosa PAM1001 in Presence of Efflux Pump Inhibitor (EPI), Minimum Inhibitory Concentration” value was 4 µg/mL (EPI Conc. 0 μg/mL); 4 µg/mL (EPI Conc. 0.625 μg/mL); 4 µg/mL (EPI Conc. 1.25 μg/mL); 4 µg/mL (EPI Conc. 2.5 μg/mL); 2 µg/mL (EPI Conc. 5 μg/ mL); 2 µg/mL (EPI Conc. 10 μg/mL). Moreover, the “Levofloxacin MIC Against P. aerugiuosa PAM1001 in Presence of Efflux Pump Inhibitor (EPI), Minimum Inhibitory Concentration” value reads like this: (EPI Conc. 20 μg/mL) 1 µg/mL; (EPI Conc. 40 μg/mL) 0.015 µg/mL.
